No end group written: not given here.
Tests used:
Type in all cases: cell-based
Sclerotium rolfsii = assay: IC50 growth inhibition
Streptococcus mitis = assay: MIC90 growth inhibition; conditions: RPMI 1640 one-fourth strength
Protocol: (§1) The minimum inhibitory concentration (MIC) value is defined as the lowest sample concentration that inhibited growth. In the Examples, the MIC90 value is presented, which MIC90 values are determined according to established methods known to the person with the skills in the relevant art. Experiments; 1×10E5 CFU of various strains/ml were incubated for 24-48 h at 37° C. in 4× diluted medium of RPMI 1640 with the indicated concentrations of antimicrobial peptide hLF(1-11) [SEQ ID NO: 3]. As controls various strains cells were incubated for 24-48 h at 37° C. with no agent (antimicrobial peptide), and subsequently, growth of the microbial organism (e.g. yeast, bacterium) was monitored by using spectrophotometry with a spectrophotometer at 620 nm. […] ND=Not done. Representative single assay data are listed rather than a range, for clarity reasons and for ease of comparison of peptide efficacy. The MIC was calculated as the lowest antibiotic (antimicrobial peptide) concentration at which growth of the assessed yeast or bacterium (microbe) was inhibited (inhibitory concentration IC90).

[1] = test system: Trichophyton mentagrophytes; assay: MIC90 growth inhibition; conditions: RPMI 1640 one-fourth strength
Protocol: as §1

Fonsecaea pedrosoi = assay: MIC90 growth inhibition; conditions: RPMI 1640 one-fourth strength
Protocol: as §1

Aspergillus spp = assay: MIC90 growth inhibition; conditions: RPMI 1640 one-fourth strength
Protocol: as §1

Aspergillus niger = assay: MIC90 growth inhibition; conditions: RPMI 1640 one-fourth strength
Protocol: as §1

Penicillium expansum = assay: MIC90 growth inhibition; conditions: RPMI 1640 one-fourth strength
Protocol: as §1

Nannizia gypsea = assay: MIC90 growth inhibition; conditions: RPMI 1640 one-fourth strength
Protocol: as §1

Aspergillus tamarii = assay: MIC90 growth inhibition; conditions: RPMI 1640 one-fourth strength
Protocol: as §1

Aspergillus versicolor = assay: MIC90 growth inhibition; conditions: RPMI 1640 one-fourth strength
Protocol: as §1

Fusarium moniliforme = assay: MIC90 growth inhibition; conditions: RPMI 1640 one-fourth strength
Protocol: as §1

Trichophyton mucoides = assay: MIC90 growth inhibition; conditions: RPMI 1640 one-fourth strength
Protocol: as §1

Microsporum gypseum = assay: MIC90 growth inhibition; conditions: RPMI 1640 one-fourth strength
Protocol: as §1

Vibrio cholerae = assay: MIC90 growth inhibition; conditions: RPMI 1640 one-fourth strength
Protocol: as §1

Escherichia coli = assay: MIC90 growth inhibition; conditions: RPMI 1640 one-fourth strength
Protocol: as §1

Nannizzia otae = assay: MIC90 growth inhibition; conditions: RPMI 1640 one-fourth strength
Protocol: as §1

[2] = test system: Staphylococcus aureus 29213; assay: MIC90 growth inhibition; conditions: RPMI 1640 one-fourth strength
Protocol: as §1

Epidermophyton floccosum = assay: MIC90 growth inhibition; conditions: RPMI 1640 one-fourth strength
Protocol: as §1

[3] = test system: Malassezia pachydermatis CBS-1879; assay: MIC90 growth inhibition; conditions: RPMI 1640 one-fourth strength
Protocol: as §1

Meyerozyma spp. = assay: MIC90 growth inhibition; conditions: RPMI 1640 one-fourth strength
Protocol: as §1

[4] = test system: Penicillium spp. such as aff. Carbonarius; assay: MIC90 growth inhibition; conditions: RPMI 1640 one-fourth strength
Protocol: as §1

Penicillium italicum = assay: MIC90 growth inhibition; conditions: RPMI 1640 one-fourth strength
Protocol: as §1

Streptococcus caseii = assay: MIC90 growth inhibition; conditions: RPMI 1640 one-fourth strength
Protocol: as §1

Streptococcus lactis = assay: MIC90 growth inhibition; conditions: RPMI 1640 one-fourth strength
Protocol: as §1

Helicobacter pylori = assay: MIC90 growth inhibition; conditions: RPMI 1640 one-fourth strength
Protocol: as §1

C. neoformans = assay: MIC90 growth inhibition; conditions: RPMI 1640 one-fourth strength
Protocol: as §1

Aspergillus sydowii = assay: MIC90 growth inhibition; conditions: RPMI 1640 one-fourth strength
Protocol: as §1

Trichophyton tonsurans = assay: MIC90 growth inhibition; conditions: RPMI 1640 one-fourth strength
Protocol: as §1

Penicillium spp = assay: MIC90 growth inhibition; conditions: RPMI 1640 one-fourth strength
Protocol: as §1

Enterococcus faecalis = assay: MIC90 growth inhibition; conditions: RPMI 1640 one-fourth strength
Protocol: as §1

Cladosporium spp = assay: MIC90 growth inhibition; conditions: RPMI 1640 one-fourth strength
Protocol: as §1

[5] = test system: Malassezia pachydermatis CBS 1883; assay: MIC90 growth inhibition; conditions: RPMI 1640 one-fourth strength
Protocol: as §1

Trichosporon cutaneum = assay: MIC90 growth inhibition; conditions: RPMI 1640 one-fourth strength
Protocol: as §1

[6] = test system: Malassezia furfur CBS-7982; assay: MIC90 growth inhibition; conditions: RPMI 1640 one-fourth strength
Protocol: as §1

[7] = test system: Staphylococcus epidermidis; assay: MIC90 growth inhibition; conditions: RPMI 1640 one-fourth strength
Protocol: as §1

Aspergillus ungius = assay: MIC90 growth inhibition; conditions: RPMI 1640 one-fourth strength
Protocol: as §1

Absidia corymbifera = assay: MIC90 growth inhibition; conditions: RPMI 1640 one-fourth strength
Protocol: as §1

Botrytis cinerea = assay: MIC90 growth inhibition; conditions: RPMI 1640 one-fourth strength
Protocol: as §1

[8] = test system: Saccharomyces cerivisiae ATCC 2602; assay: MIC90 growth inhibition; conditions: RPMI 1640 one-fourth strength
Protocol: as §1

Cryptococcus curvatus = assay: MIC90 growth inhibition; conditions: RPMI 1640 one-fourth strength
Protocol: as §1

Aspergillus terreus = assay: MIC90 growth inhibition; conditions: RPMI 1640 one-fourth strength
Protocol: as §1

Malassezia furfur spp. = assay: MIC90 growth inhibition; conditions: RPMI 1640 one-fourth strength
Protocol: as §1

Malassezia globosa = assay: MIC90 growth inhibition; conditions: RPMI 1640 one-fourth strength
Protocol: as §1

Microsporum canis = assay: MIC90 growth inhibition; conditions: RPMI 1640 one-fourth strength
Protocol: as §1

[9] = test system: Malassezia furfur CBS-9372; assay: MIC90 growth inhibition; conditions: RPMI 1640 one-fourth strength
Protocol: as §1

GRRRRSVQWCA [hLF1-11, Gly Arg Arg Arg Arg Ser Val Gln Trp Cys Ala]
Inhibitory concentration IC50 (Sclerotium rolfsii): IC50 = 231 μg/mL | Inhibitory concentration MIC (MIC90) (Streptococcus mitis): MIC = 3.1 μg/ml | Inhibitory concentration MIC (MIC90) [1]: MIC = 6.3-45 μg/ml | Inhibitory concentration MIC (MIC90) (Fonsecaea pedrosoi): MIC = 5 μg/ml | Inhibitory concentration MIC (MIC90) (Aspergillus spp): MIC = 2.5-12.5 μg/ml | Inhibitory concentration MIC (MIC90) (Aspergillus niger): MIC = 50 μg/mL | Inhibitory concentration MIC (MIC90) (Penicillium expansum): MIC = 16 μM | Inhibitory concentration MIC (MIC90) (Nannizia gypsea): MIC = 30 μg/ml | Inhibitory concentration MIC (MIC90) (Aspergillus tamarii): MIC = 2.5-12.5 μg/ml | Inhibitory concentration MIC (MIC90) (Aspergillus versicolor): MIC = 10 μg/ml | Inhibitory concentration MIC (MIC90) (Fusarium moniliforme): MIC = 2.5-5 μg/ml | Inhibitory concentration MIC (MIC90) (Trichophyton mucoides): MIC = 12.5-50 μg/ml | Inhibitory concentration MIC (MIC90) (Microsporum gypseum): MIC = 20-40 μg/ml | Inhibitory concentration MIC (MIC90) (Vibrio cholerae): MIC = 12.5 μg/ml | Inhibitory concentration MIC (MIC90) (Escherichia coli): MIC = 6.3 μg/ml | Inhibitory concentration MIC (MIC90) (Nannizzia otae): MIC = 60 μg/ml | Inhibitory concentration MIC (MIC90) [2]: MIC = 3.1 μg/ml | Inhibitory concentration MIC (MIC90) (Epidermophyton floccosum): MIC = 0.31-2.5 μg/ml | Inhibitory concentration MIC (MIC90) [3]: MIC = 50 μg/ml | Inhibitory concentration MIC (MIC90) (Meyerozyma spp.): MIC = 25-50 μg/mL | Inhibitory concentration MIC (MIC90) [4]: MIC = 45 μg/ml | Inhibitory concentration MIC (MIC90) (Penicillium italicum): MIC = 8 μM | Inhibitory concentration MIC (MIC90) (Streptococcus caseii): MIC = 3.1 μg/ml | Inhibitory concentration MIC (MIC90) (Streptococcus lactis): MIC = 3.1 μg/ml | Inhibitory concentration MIC (MIC90) (Helicobacter pylori): MIC = 12.5-50 μg/ml | Inhibitory concentration MMC (C. neoformans): MMC = 50 μg/ml | Inhibitory concentration MIC (MIC90) (Aspergillus sydowii): MIC = 2.5-12.5 μg/ml | Inhibitory concentration MIC (MIC90) (Trichophyton tonsurans): MIC = 5-40 μg/ml | Inhibitory concentration MIC (MIC90) (Penicillium spp): MIC = 12.5-50 μg/ml | Inhibitory concentration MIC (MIC90) (Enterococcus faecalis): MIC = 6.3 μg/ml | Inhibitory concentration MIC (MIC90) (Cladosporium spp): MIC = 3.1-12.5 μg/ml | Inhibitory concentration MIC (MIC90) [5]: MIC = 25-50 μg/mL | Inhibitory concentration MIC (MIC90) (Trichosporon cutaneum): MIC = 1.25-18 μg/ml | Inhibitory concentration MIC (MIC90) [6]: MIC = 100 μg/ml | Inhibitory concentration MIC (MIC90) [7]: MIC = 3.1 μg/ml | Inhibitory concentration MIC (MIC90) (Aspergillus ungius): MIC = 3.1-25 μg/ml | Inhibitory concentration MIC (MIC90) (Absidia corymbifera): MIC = 40 μg/ml | Inhibitory concentration MIC (MIC90) (Botrytis cinerea): MIC = 16 μM | Inhibitory concentration MIC (MIC90) [8]: MIC = 25 μg/ml | Inhibitory concentration MIC (MIC90) (Cryptococcus curvatus): MIC = 9 μg/ml | Inhibitory concentration MIC (MIC90) (Aspergillus terreus): MIC = 2.5-12.5 μg/ml | Inhibitory concentration MIC (MIC90) (Malassezia furfur spp.): MIC = 12.5-50 μg/mL | Inhibitory concentration MIC (MIC90) (Malassezia globosa): MIC = 12.5-50 μg/mL | Inhibitory concentration MIC (MIC90) (Microsporum canis): MIC = 40 μg/ml | Inhibitory concentration MIC (MIC90) [9]: MIC = 50 μg/ml
